According to PubChem BioAssay AID2055 (NMMLSC, 2009):
pKi: −log10 of the molar value.

Molecular target: Ras-related C3 botulinum toxin substrate 1 (Homo sapiens) (UniProt P63000)
Experiment: Rac1 wildtype GTP binding inhibitors, SAR follow-up, biochemical, pyrazoline analogs, multiplex, flow cytometry, Ki (AID 2055)
Conditions: Rac1-GST beads, Bodipy-FL-GTP binding, Ki calculated from EC50

| SMILES | pKi |
| --- | --- |
| COc1ccc(C2CC(c3ccccc3)=NN2c2ccc(S(N)(=O)=O)cc2)cc1OC (stereo unspecified) | 5.91 |
| CN(C)c1ccc(C2CC(c3ccccc3)=NN2c2ccc([N+](=O)[O-])cc2)cc1 (stereo unspecified) | 5.72 |
| CC(=O)Oc1ccc(C2=NN(c3ccccc3)C(c3ccccc3)C2)cc1 (stereo unspecified) | 6.28 |
| O=C(O)c1ccc(N2N=C(c3ccccc3)CC2c2ccccc2)cc1 (stereo unspecified) | 5.29 |
| Brc1ccc(N2N=C(c3ccccc3)CC2c2ccccc2)cc1 (stereo unspecified) | 6.05 |
| COc1ccc(C2CC(c3ccc(F)cc3)=NN2c2cc(Cl)ccc2Cl)cc1 (stereo unspecified) | 8.00 |
